Experimental data published in patent publication US20250032526A1, “COMPOSITION, METHOD FOR PREPARING SAME, AND USE THEREOF” (priority 2022, published 2025).

What was measured:
[1] = Stability investigation of related substance (capsules); format: physicochemical; details: 0 day
From the text: The capsules provided by the present invention were taken and separately put under the conditions shown in Table 18 to investigate the stability.

[2] = Compatibility of raw material and auxiliary material (content measurement); format: physicochemical
Protocol: The mixture was allowed to stand at 60° C. high temperature condition (60° C.), high humidity condition (25° C., 92.5% RH), acceleration condition (40° C.±2° C., 75% RH±5%), and light condition (4500 1×±500 1×) for 10 days and 30 days, and then taken out to detect the content and the change of the related substance.

- Impurity (%) RRT 0.42 [1]: 0.47%
- Impurity (%) RRT 0.49 (0.48) [1]: 0.19%
- Impurity (%) RRT 1.16 [1]: 0.75%
- Impurity (%) RRT 1.42 (1.38) [1]: 0.53%
- Impurity (%) RRT 1.44 (1.40) [1]: 0.16%
- Impurity (%) RRT 1.70 (1.65) [1]: 0.04%
- Impurity (%) Total [1]: 2.10%
- Content measurement result, 25° C./92.5% RH, open, 10 day ([2]; 25° C./92.5% RH, 10 day): 100.3%
- Content measurement result, 60° C., open, 10 day ([2]; 60° C., 10 day): 100.3%
- Content measurement result, 60° C., open, 30 day ([2]; 60° C., 30 day): 100.5%
Structure (SMILES): N#C[C@@]1(c2ccc3c(N)ncnn23)O[C@H](COC(=O)C2CCCCC2)[C@@H](O)[C@H]1O [ATV014]
